Test results: patent publication US9326972B2, “Use of phenylmethimazoles, methimazole derivatives, and tautomeric cyclic thiones for the treatment of autoimmune/inflammatory diseases associated with toll-like receptor overexpression” (Ohio University, priority 2004, dated 2016)

Tests used:
[1] = test system: IFN-β promoter; assay: IFN-β promoter luciferase reporter in FRTL-5 thyrocytes; format: cell-based, rat
Procedure: FIG. 5. Phenylmethimazole (CIO) and Methimazole (MMI) inhibit the ability of Poly (I:C), lipopolysaccharide (LPS) and IL-1β to increase IFN-β gene expression (Top Left) and IRF-3 transactivation (Top Right) in FRTL-5 thyrocytes. (Top Left) Cells were co-transfected with IFNβ-Luc and control vector (pRLTk-Int), then treated with or without (−) Poly (I:C) (100 μg/ml), LPS (100 ng/ml), or IL-1β (10 ng/ml) in the presence of the vehicle (DMSO) alone (−), C10, or MMI for 6 hours. Data was obtained with the Dual Luciferase Assay system. (Top Right) Cells were co-transfected with Gal4 DBD/IRF-3 and Gal4-Luc then treated with nothing (−), poly (I:C), LPS, or IL-1β as in (Top Left) in the presence of DMSO or C10 for 6 hours. Data was obtained by Luciferase assay. Also shown is a graphic depiction (Bottom) of how the cis reporting system is working. Data are representative of multiple experiments.
C10, at 0.5 mM, inhibited the ability of poly (I:C) to increase IFN-β promoter activity (luciferase luminescence; P<0.01) when incubated with FRTL-5 thyrocytes transfected with pIFN-β-luc constructs (FIG. 5 Top Left, Poly (I:C) vs untreated (−)).
Plasmids for Reporter Gene Assays. Human IRF-3 was amplified from human cDNA and cloned into pCR 2.1 by the TOPO/TA (Invitrogen, Carlsbad, Calif.) cloning method, and then sequenced. […]

[2] = test system: iNOS; assay: LPS-induced iNOS mRNA in RAW 264.7 macrophages (RT-PCR); format: cell-based, mouse; conditions: RAW 264.7, LPS 3 hours, C10 in DMSO or vehicle B
Procedure: In macrophages NO production occurs as a result of LPS induction of iNOS (C. Bogdan, Nat Immunol, 2:907-16 (2001)) and is a process that depends on autocrine signaling by IFN-β. We used standard reverse transcriptase polymerase chain reaction to detect the inhibition of LPS induced iNOS transcription in the presence of C10 (FIG. 13A). The RAW 264.7 cells were treated with LPS in the presence of C10, its vehicle control, DMSO, or another excipient vehicle (compound B; see Table 8) for 3 hours. Table 8 establishes that C10 is effective in vivo in the mouse toxic shock model and in FRTL-5 cell assays in vitro when solubilized in water in the presence of the compound B excipient, i.e., water soluble forms of C10 are effective in both in vivo and in vitro just as C10 in DMSO. In the presence of DMSO control (FIG. 13A, lane 4) or vehicle B only (FIG. 13A, lane 5) little or no iNOS reduction was detected respectively when compared to LPS only (FIG. 13A lane 3).
Standard reverse transcriptase PCR for INOS: RNA was isolated as described above and treated with DNAse a described above. […] of DNA free RNA was then reverse transcribed with the Advantage® RT-for PCR kit (BD Biosciences, Palo Alto, Calif.) in a total volume of 20 μl. Five μl of cDNA was then amplified using ExTaq™ DNA polymerase (Takara, Madison, Wis.) in a reaction volume of 25 μl. […]

Cn1c(-c2ccccc2)cnc1S [Compound C10, 5-Phenylmethimazole]
LPS- or IL-1β-increased IFN-β luciferase activity ([1]; FRTL-5, LPS 100 ng/ml or IL-1β 10 ng/ml, 0.5 mM C-10, 5 mM MMI, P<0.05 or better): inhibited the increase
poly (I:C)-increased IFN-β promoter activity (luciferase) ([1]; FRTL-5, Poly (I:C) 100 μg/ml, 6 hours, C10 0.5 mM, P<0.01): inhibited
LPS induced iNOS mRNA [2]: strong reduction
